Measured values reported in publication PMC6838110 (Nature Communications, 2019).

Key:
A549 xenografts [1] = assay: Pharmacodynamic biomarkers by immunohistochemistry after IR; format: in vivo, mice; details: single dose AZD7648 100 mg kg−1, 1 h before IR 6 Gy
A549 xenografts [2] = assay: Xenograft efficacy study with fractionated IR; format: in vivo, mice
Protocol: (§1) Immunocompromised SCID (C.B-17/IcrHan®Hsd-Prkdc^scid) or Hsd:Athymic Nude-Foxn1^nu female mice (Envigo) were used for tumour implantation. […] When dosed twice daily, the time between the morning and evening doses was 8 h. Targeted irradiation of 2 Gy was delivered over 2 min daily over the first 5 days of treatment. Liposomal doxorubicin (Doxoves) was diluted in physiological saline and intravenously dosed at 2.5 or 5 mg kg^−1 once per week. Olaparib was formulated in 10% DMSO/30% Kleptose and orally dosed at 100 mg kg^−1 once daily. […] Statistical significance was evaluated using a one-tailed t-test. All in vivo studies complied with all relevant ethical regulations for animal testing and research, followed AstraZeneca’s global bioethics policy and received ethical approval from the AstraZeneca ethical committee. HBCx-17 PDX study was carried out at XenTech, France in accordance with French regulatory legislation concerning the protection of laboratory animals. CTG-703, CTG-0828 and CTG-0149 PDX studies were carried out at Champions Oncology, Inc., USA in accordance to the guidelines of the Institutional Animal Care and Use Committee (IACUC) of Champions Oncology and the USA regulatory legislation. CDX and OV2022 PDX studies were conducted in the UK in accordance with UK Home Office legislation, the Animal Scientific Procedures Act 1986 and the Home Office project licences 70/8839, 70/8894 and P0EC1FFDF. […]
(§2) Tumours were measured (length x width) by bilateral Vernier calliper measurements and tumour volume calculated using Mousetrap software. Mice were randomized into […]
(§3) treatment groups when mean tumour volume reached ~0.2 cm 3. AZD7648 was formulated in 0.5% hydroxypropyl methylcellulose (HPMC)/0.1% Tween80 (HPMC/T) and orally dosed (4–100 mg/kg). When dosed twice daily (bid), the time between the morning and evening doses was 8 hours. Targeted irradiation of 2 Gy was delivered over 2 minutes daily over the first 5 days of treatment. Liposomal doxorubicin (Doxoves) was diluted in physiological saline and intravenously dosed at 2.5 or 5 mg/kg once per week. Olaparib was formulated in 10% DMSO/30% Kleptose and orally dosed at 100 mg/kg once daily.
(§4) HPMC/T. Tumour growth inhibition from start of treatment was assessed by co mparison of the mean change in tumour volume for the control and treated groups, using the Mousetrap application and represented as tumour growth inhibition (TGI). Statistical significance was evaluated using a one-tailed t-test. […]
(§5) was prepared using an appropriate dilution factor and compared against an 11-point standard calibration curve (1–10,000 nM) prepared in DMSO and spiked into bl ank plasma. […] Supernatant (50 µL) was then diluted in 300 µL water and analysed with ultra-performance liquid chromatography–tandem mass […]

NCI-H1299 xenografts = assay: Xenograft efficacy study with fractionated IR; format: in vivo, mice
Protocol: as §1, §2, §3, §4, §5

[3] = tested on: FaDu and A549 ATM KO cells; assay: Live/Dead assay, AZD7648 monotherapy, ATM KO versus WT isogenic pairs; format: cell-based, human; details: AZD7648 single agent
Description: (§6) by Live/Dead assay in A) UWB1.289 and UWB1.289 complemented with wild-type BRCA1 (UWB1.289 + BRCA1), DLD1 and DLD1 with the BRCA2 gene knocked out (DLD1 BRCA2 KO), and B) FaDu and A549 cells with the ATM gene knocked out (ATM KO) compared with their WT counterpart. Graphs represent percentage viable cells ± SD following 7 days’ treatment relative to DMSO vehicle-treated controls from one representative experiment of at least three independent experiments. Tables describe […]
(§7) and A549 ATM KO cells compared with their WT counterparts following 7 days’ treatment.
(§8) Mean pGI50 (–log [GI50]) ± SEM, geometric mean GI50, number of experimental repeats (n) and 95% confidence interval are described. C) Colony formation assay was performed on FaDu and A549 ATM KO and WT cells treated with increasing concentrations of olaparib. Graphs represent percentage surviving fraction of colonies ± SD following 10– 14 days’ treatment relative to DMSO vehicle-treated control from one representative experiment of three independent experiments. […] Mean pIC50
(§9) ± SEM, geometric mean IC50, number of experimental repeats (n) and 95% confidence […]
(§10) 8–14 days or with increasing concentrations of olaparib. Cell colonies were washed with […]
(§11) Mean surviving colonies were calculated from three technical replicates. […]
(§12) before survival fraction was calculated. […]
(§13) and quantified using the Acumen ® Cellista (TTP Labtech). […]

FaDu ATM KO cells = assay: Cell proliferation (GI50), Live/Dead assay; format: cell-based; details: Homo sapiens, read-out: GI50 (near 50% of maximal inhibition of cell proliferation)
Description: as §6, §7, §8, §9, §10, §11, §12, §13

CTG-0828 NSCLC PDX = assay: PDX efficacy study; format: in vivo, mice; details: AZD7648 single agent
Protocol: as §1
(§14) SCID mice were surgically implanted subcutaneously with tumour fragments from donor mice. Tumours were measured (length x width) by bilateral Vernier calliper measurements and tumour volume calculated using Mousetrap software. Mice were randomized into […]
as §3
(§15) HPMC/T. Tumour growth inhibition from start of treatment was assessed by co mparison of the mean change in tumour volume for the control and treated groups, using the Mousetrap application and represented as tumour growth inhibition (TGI). Statistical significance was evaluated using a one-tailed t-test. HBCx-17 PDX study was carried out at XenTech, France in accordance with French regulatory legislation concerning the protection of laboratory animals. CTG-703, CTG-0828 and CTG-0149 PDX studies were carried out at Champions Oncology, Inc., USA in accordance to the guidelines of the Institutional Animal Care and Use Committee (IACUC) of Champions Oncology and the USA regulatory legislation. CDX and OV2022 PDX studies were conducted in the UK in accordance with UK Home Office legislation, the Animal Scientific Procedures Act 1986, and AstraZeneca’s global bioethics policy. Experimental details are outlined in Home […]
(§16) Blood samples were taken via venipuncture of the tail vein. Whole blood was mixed 1: 5 with PBS and centrifuged at 1500g for 3 minutes at 4°C, and the plasma was extracted […]
(§17) was prepared using an appropriate dilution factor and compared against an 11-point standard calibration curve (1–10,000 nM) prepared in DMSO and spiked into bl ank plasma. Acetonitrile (100 µL) was added with the internal standard, followed by centrifugation at 3000 rpm for 10 minutes. Supernatant (50 µL) was then diluted in 300 µL water and analysed with ultra-performance liquid chromatography–tandem mass […]
(§18) Xenograft sample preparation
(§19) Animals were euthanized and tumour samples snap frozen in liquid nitrogen or fixed in formalin and paraffin embedded for subsequent analysis. Tumour pieces were lysed in […]

OV2022 ovarian PDX = assay: PDX efficacy study; format: in vivo, mice; details: AZD7648 single agent
Protocol: as §1, §14, §3, §15, §16, §17, §18, §19

CTG-703 ovarian PDX = assay: PDX efficacy study; format: in vivo, mice; details: AZD7648 single agent
Protocol: as §1, §14, §3, §15, §16, §17, §18, §19

CTG-0149 H&N PDX = assay: PDX efficacy study; format: in vivo, mice; details: AZD7648 single agent
Protocol: as §1, §14, §3, §15, §16, §17, §18, §19

SMILES: Cc1cc2ncnn2cc1Nc1ncc2c(n1)n(C1CCOCC1)c(=O)n2C [AZD7648]
- IR-induced increases in pDNA-PKcs Ser2056 and γH2AX (A549 xenografts [1]): abolished
- tumour growth inhibition (TGI) (A549 xenografts [2]; AZD7648 100 mg kg−1 qd oral + IR 2 Gy for five consecutive days): 90%
- tumour response to single-agent treatment (A549 xenografts [2]; AZD7648 100 mg kg−1 qd oral, single agent): insensitive
- tumour regression (NCI-H1299 xenografts; AZD7648 50 mg kg−1 qd × 21 days + IR 2 Gy qd × 5 days): 55%
- tumour regression (NCI-H1299 xenografts; AZD7648 100 mg kg−1 qd × 21 days + IR 2 Gy qd × 5 days): 85%
- greater sensitivity of ATM KO cells compared with isogenic WT cells [3]: > 10 fold
- GI50 (FaDu ATM KO cells): ~600 nM
- TGI (CTG-0828 NSCLC PDX): too variable to assess the group effect
- TGI (OV2022 ovarian PDX): 60–80%
- TGI (CTG-703 ovarian PDX): 60–80%
- TGI (CTG-0149 H&N PDX): 60–80%
